According to ChEMBL document CHEMBL5034037, “Synthesis, Characterization, and Preclinical Evaluation of a Small-Molecule Prostate-Specific Membrane Antigen-Targeted Monomethyl Auristatin E Conjugate” (J Med Chem, 2021):
The source made the active and inactive calls. No cut-off for these calls is given here. *1 amine or outer side, *2 acyl side, *3 side chain or, on linkers, in order; H or OH if unused. Where a SMILES comes first, the peptide text is derived from it. [ ]: non-standard residue; d: D form. The star is where a group is joined. GluureaLys(ε-3-ClBenzyl) = O=C(O)CC[C@H](NC(=O)N[C@@H](CCCCN(Cc1cccc(Cl)c1)*)C(=O)O)C(=O)O; Dolaproine = CO[C@@H]([C@@H]1CCCN1)[C@@H](C)C(=O)O; Dil = CC[C@H](C)[C@H](NC)[C@@H](CC(=O)O)OC; X1 = O=C(CCCc1cn(CCCN[*:1])nn1)[*:2]; PABC = O=C(OCc1ccc(N[*:1])cc1)[*:2]; X2 = C[C@@H](N*)[C@@H](O)c1ccccc1; Cit = NC(=O)NCCC[C@H](N)C(=O)O; Suc = O=C(CCC(=O)[*:2])[*:1]; NMeV = CN[C@H](C(=O)O)C(C)C; Ahx = NCCCCCC(=O)O

What was measured:
[1] = molecular target: Cathepsin B (Homo sapiens, UniProt P07858); assay: Stability of compound at pH 3.6 assessed as recombinant cathepsin B (unknown origin) mediated hydrolysis half life by HPLC-MS analysis; type: ADME
[2] = system: CWR22R; assay: Induction of intracellular reactive oxygen species production in human 22Rv1 cells incubated for 1 hr measured at CC50 concentration by amperometric method; type: functional, cell-based
[3] = system: PC-3; assay: Induction morphological changes in human PC-3 cells assessed as decrease in cell membrane stiffness measured upto 1 hr; type: functional, cell-based; conditions: time hrs <=1
[4] = Acute toxicity in iv dosed ICR mouse assessed as maximum tolerated dose; type: organism-based; conditions: in vivo, read-out: MNTD
[5] = Toxicity in rabbit assessed as morphological changes in liver at 81 to 122 microg/kg, iv; type: tissue-based, Oryctolagus cuniculus; conditions: in vivo, dose 81-122 µg/kg
[6] = Chronic toxicity in rat assessed as reduced volume of urine at […], iv administered once every 3 weeks for 3 months; type: organism-based; conditions: in vivo, 504 h, dose lower 150 mg/kg
[7] = Chronic toxicity in rabbit assessed as decrease in the blood lymphocyte count at […], iv administered once every 3 weeks for 3 months; type: organism-based, Oryctolagus cuniculus; conditions: in vivo, 504 h, dose lower 81 mg/kg
[8] = Toxicity in rabbit morphological change in mucosae of mouth at 81 to 122 microg/kg, iv; type: tissue-based, Oryctolagus cuniculus; conditions: in vivo, dose 81-122 µg/kg
[9] = Toxicity in rat assessed as morphological changes in mucosa of trachea at 150 to 225 microg/kg, iv; type: tissue-based; conditions: in vivo, dose 150-225 µg/kg
[10] = Toxicity in rabbit assessed as morphological changes in capsule of the kidney at 81 to 122 microg/kg, iv; type: tissue-based, Oryctolagus cuniculus; conditions: in vivo, dose 81-122 µg/kg
[11] = Toxicity in rat assessed as morphological changes in heart valve at 150 to 225 microg/kg, iv; type: tissue-based; conditions: in vivo, dose 150-225 µg/kg
[12] = Toxicity in rabbit assessed as morphological changes in cerebrum at 81 to 122 microg/kg, iv; type: tissue-based, Oryctolagus cuniculus; conditions: in vivo, dose 81-122 µg/kg
[13] = Toxicity in rat assessed as morphological changes in spleen pulp at 150 to 225 microg/kg, iv; type: tissue-based; conditions: in vivo, dose 150-225 µg/kg
[14] = Toxicity in rabbit assessed as morphological changes in lumen of trachea at 81 to 122 microg/kg, iv; type: tissue-based, Oryctolagus cuniculus; conditions: in vivo, dose 81-122 µg/kg
[15] = Toxicity in rat assessed as morphological changes in lumen of trachea at 150 to 225 microg/kg, iv; type: tissue-based; conditions: in vivo, dose 150-225 µg/kg
[16] = Toxicity in rat assessed as morphological changes in brain ventricle at 150 to 225 microg/kg, iv; type: tissue-based; conditions: in vivo, dose 150-225 µg/kg
[17] = Antitumor activity against human 22Rv1 cells xenografted in mouse assessed as tumour growth inhibition at 10 mg/kg,ip daily treated for 5 days after 18 days of tumor implantation measured upto 10 days; type: functional, CWR22R; conditions: 22Rv1, ip, 120 h, time 5 day, read-out: TGI
[18] = Antitumor activity against human PC-3 cells xenografted in mouse assessed as tumour growth inhibition at 0.3 mg/kg, ip daily treated for 5 days after 18 days of tumor implantation measured upto 15 days; type: functional; conditions: PC-3, ip, 120 h, time 5 day, read-out: TGI
[19] = Half life in rabbit at 0.81 mg/kg, iv; type: ADME, organism-based, Oryctolagus cuniculus; conditions: in vivo
[20] = Ratio of AUC (t to infinity) to AUC (0 to infinity) in rabbit plasma at 0.81 mg/kg, iv; type: ADME, organism-based, Oryctolagus cuniculus; conditions: in vivo
[21] = molecular target: T1, Cytochrome P450 2B6 (Homo sapiens, UniProt P20813); assay: Drug metabolism assessed as human liver microsome CYP2B6-mediatd metabolism; type: ADME; conditions: microsomes
T1 sequence (P20813 whole entry): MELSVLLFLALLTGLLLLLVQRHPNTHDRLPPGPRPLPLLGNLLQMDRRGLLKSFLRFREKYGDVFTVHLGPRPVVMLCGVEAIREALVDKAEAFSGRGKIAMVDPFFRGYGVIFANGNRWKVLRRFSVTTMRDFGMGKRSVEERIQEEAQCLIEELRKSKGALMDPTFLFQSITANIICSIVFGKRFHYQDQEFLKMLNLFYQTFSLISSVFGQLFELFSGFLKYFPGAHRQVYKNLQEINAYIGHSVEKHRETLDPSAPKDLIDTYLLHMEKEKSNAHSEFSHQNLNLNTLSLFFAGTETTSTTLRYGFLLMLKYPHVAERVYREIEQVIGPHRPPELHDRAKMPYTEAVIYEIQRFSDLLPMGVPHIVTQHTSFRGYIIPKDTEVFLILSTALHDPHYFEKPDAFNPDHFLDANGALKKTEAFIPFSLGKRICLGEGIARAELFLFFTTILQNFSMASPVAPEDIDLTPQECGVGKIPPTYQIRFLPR

[22] = molecular target: Cytochrome P450 2D6 (Homo sapiens, UniProt P10635); assay: Drug metabolism assessed as human liver microsome CYP2D6-mediatd metabolism; type: ADME; conditions: microsomes
[23] = molecular target: T2, Cytochrome P450 2C8 (Homo sapiens, UniProt P10632); assay: Drug metabolism assessed as human liver microsome CYP2C8-mediatd metabolism; type: ADME; conditions: microsomes
T2 sequence (P10632 whole entry): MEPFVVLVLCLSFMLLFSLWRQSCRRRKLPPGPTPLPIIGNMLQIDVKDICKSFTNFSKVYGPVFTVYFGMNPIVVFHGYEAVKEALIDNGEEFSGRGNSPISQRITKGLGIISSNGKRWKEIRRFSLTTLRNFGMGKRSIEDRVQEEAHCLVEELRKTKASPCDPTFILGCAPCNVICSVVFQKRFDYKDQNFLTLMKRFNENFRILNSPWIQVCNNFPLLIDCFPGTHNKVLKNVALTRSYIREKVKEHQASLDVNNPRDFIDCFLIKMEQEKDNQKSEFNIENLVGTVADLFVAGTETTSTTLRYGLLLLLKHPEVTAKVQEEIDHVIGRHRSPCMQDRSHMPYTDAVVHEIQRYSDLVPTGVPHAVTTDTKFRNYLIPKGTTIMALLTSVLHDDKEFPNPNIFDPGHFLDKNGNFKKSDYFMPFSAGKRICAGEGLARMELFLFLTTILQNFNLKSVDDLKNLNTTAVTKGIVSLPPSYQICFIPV

[24] = system: Salmonella typhimurium; assay: Mutagenecity in Salmonella typhimurium TA100 in presence of metabolic activation system at 1 ug/ml by Ames test; type: toxicity, organism-based; conditions: salmonella enterica subsp. enterica serovar typhimurium; dose 1 µg/ml
[25] = system: Salmonella typhimurium; assay: Mutagenecity in Salmonella typhimurium TA98 in presence of metabolic activation system at 1 ug/ml by Ames test; type: toxicity, organism-based; conditions: salmonella enterica subsp. enterica serovar typhimurium; dose 1 µg/ml
[26] = system: Salmonella typhimurium; assay: Mutagenecity in Salmonella typhimurium TA100 in presence of metabolic activation system at 100 ug/ml by Ames test; type: toxicity, organism-based; conditions: salmonella enterica subsp. enterica serovar typhimurium; dose 100 µg/ml
[27] = system: Salmonella typhimurium; assay: Mutagenecity in Salmonella typhimurium TA97 in presence of metabolic activation system at 1000 ug/ml by Ames test; type: toxicity, organism-based; conditions: salmonella enterica subsp. enterica serovar typhimurium; dose 1000 µg/ml
[28] = system: Salmonella typhimurium; assay: Mutagenecity in Salmonella typhimurium TA98 in presence of metabolic activation system at 10000 ug/ml by Ames test; type: toxicity, organism-based; conditions: salmonella enterica subsp. enterica serovar typhimurium; dose 10000 µg/ml
[29] = system: Salmonella typhimurium; assay: Mutagenecity in Salmonella typhimurium TA97 without metabolic activation system at 1000 ug/ml by Ames test; type: toxicity, organism-based; conditions: salmonella enterica subsp. enterica serovar typhimurium; dose 1000 µg/ml
[30] = Toxicity in rabbit assessed as hemorrhage at 81 to 122 microg/kg, iv; set-up: species or system Oryctolagus cuniculus; conditions: in vivo, dose 81-122 µg/kg

Cytochrome P450 2D6, sequence (P10635 whole entry): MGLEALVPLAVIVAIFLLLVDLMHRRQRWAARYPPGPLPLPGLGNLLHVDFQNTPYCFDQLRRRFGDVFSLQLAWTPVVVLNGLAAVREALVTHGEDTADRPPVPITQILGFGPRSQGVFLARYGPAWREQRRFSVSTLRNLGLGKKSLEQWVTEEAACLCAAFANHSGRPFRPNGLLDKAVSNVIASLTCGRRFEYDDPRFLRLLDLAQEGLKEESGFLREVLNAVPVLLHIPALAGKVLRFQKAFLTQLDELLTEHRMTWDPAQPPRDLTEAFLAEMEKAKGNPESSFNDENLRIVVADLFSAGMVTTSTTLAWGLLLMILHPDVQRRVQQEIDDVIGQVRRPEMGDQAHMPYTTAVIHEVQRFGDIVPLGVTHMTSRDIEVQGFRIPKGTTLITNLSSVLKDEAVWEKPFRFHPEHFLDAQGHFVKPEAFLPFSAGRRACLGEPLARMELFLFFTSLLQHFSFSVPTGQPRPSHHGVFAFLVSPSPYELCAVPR

For `CC[C@H](C)[C@@H]([C@@H](CC(=O)N1CCC[C@H]1[C@H](OC)[C@@H](C)C(=O)N[C@H](C)[C@@H](O)c1ccccc1)OC)N(C)C(=O)[C@@H](NC(=O)[C@H](C(C)C)N(C)C(=O)OCc1ccc(NC(=O)[C@H](CCCNC(N)=O)NC(=O)[C@@H](NC(=O)CCCc2cn(CCCNC(=O)[C@H](Cc3ccc(O)cc3)NC(=O)[C@H](Cc3ccccc3)NC(=O)CCC(=O)NCCCCCC(=O)N(CCCC[C@H](NC(=O)N[C@@H](CCC(=O)O)C(=O)O)C(=O)O)Cc3cccc(Cl)c3)nn2)C(C)C)cc1)C(C)C` ({GluureaLys(ε-3-ClBenzyl)-Ahx-Suc}-FY[X1]V[Cit][PABC][NMeV]V[Dil][Dolaproine]-X2), the half-life [1] was 0.417 h, the Activity [2] was “Active” and the Activity [3] was “Active”. For the same compound, the MTD [4] was 3 mg/kg, the Activity [5] was “Non-Toxic” and the Activity [6] was “Toxic”. The Activity [7] was “Toxic”, the Activity [8] was “Non-Toxic” and the Activity [9] was “Non-Toxic”. The Activity [10] was “Non-Toxic”, the Activity [11] was “Non-Toxic” and the Activity [12] was “Non-Toxic”. For the same compound, the Activity [13] was “Non-Toxic”, the Activity [14] was “Non-Toxic” and the Activity [15] was “Non-Toxic”. The Activity [16] was “Non-Toxic”, the inhibition in vivo at 10 mg/kg [17] was 84% and the inhibition in vivo at 0.3 mg/kg [18] was 37.7%. For the same compound, the half-life [19] was 4.6 h, the Ratio [20] was 13% and the Drug metabolism [21] was “Metabolite_Notdetected”. The Drug metabolism [22] was “Metabolite_Notdetected”, the Drug metabolism [23] was “Metabolite_Notdetected” and the Activity [24] was “Non-Toxic”. For the same compound, the Activity [25] was “Non-Toxic”, the Activity [26] was “Non-Toxic” and the Activity [27] was “Non-Toxic”. For the same compound, the Activity [28] was “Non-Toxic”, the Activity [29] was “Non-Toxic” and the Activity [30] was “Toxic”.
